For one data set, the target named is T1, TLR9 (Homo sapiens, UniProt Q9NR96).
T1 sequence (Q9NR96 26-1032): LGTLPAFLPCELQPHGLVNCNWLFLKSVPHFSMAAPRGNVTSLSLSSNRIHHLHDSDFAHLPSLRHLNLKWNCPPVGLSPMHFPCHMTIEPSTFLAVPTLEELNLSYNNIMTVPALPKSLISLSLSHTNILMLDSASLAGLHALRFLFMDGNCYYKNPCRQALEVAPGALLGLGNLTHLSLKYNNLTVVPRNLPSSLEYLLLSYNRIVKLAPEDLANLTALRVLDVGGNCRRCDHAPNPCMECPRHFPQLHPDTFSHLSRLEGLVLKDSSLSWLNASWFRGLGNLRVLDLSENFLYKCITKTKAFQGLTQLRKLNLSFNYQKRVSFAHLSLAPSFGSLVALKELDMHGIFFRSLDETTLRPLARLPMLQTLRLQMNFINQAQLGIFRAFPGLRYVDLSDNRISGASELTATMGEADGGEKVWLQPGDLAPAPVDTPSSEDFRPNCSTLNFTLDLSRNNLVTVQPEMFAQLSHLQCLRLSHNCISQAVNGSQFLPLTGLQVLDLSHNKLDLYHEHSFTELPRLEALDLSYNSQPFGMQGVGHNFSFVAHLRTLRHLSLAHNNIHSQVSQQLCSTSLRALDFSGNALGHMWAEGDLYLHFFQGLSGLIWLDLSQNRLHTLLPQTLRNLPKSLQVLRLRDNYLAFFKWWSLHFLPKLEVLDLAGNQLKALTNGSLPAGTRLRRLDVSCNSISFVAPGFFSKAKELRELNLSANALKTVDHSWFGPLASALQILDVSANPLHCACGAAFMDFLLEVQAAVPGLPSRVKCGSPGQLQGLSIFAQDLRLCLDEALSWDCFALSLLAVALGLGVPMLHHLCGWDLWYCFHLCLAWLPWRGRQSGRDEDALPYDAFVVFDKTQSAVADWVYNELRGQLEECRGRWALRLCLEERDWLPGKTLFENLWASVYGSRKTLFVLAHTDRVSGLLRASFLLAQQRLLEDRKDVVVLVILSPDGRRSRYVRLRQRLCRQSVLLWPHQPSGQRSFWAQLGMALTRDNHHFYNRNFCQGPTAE
Description: Human PBMC cell-based assay. Also noted: These cells express TLR7, TLR8, or TLR9, and therefore are natural responders to respective ligand stimulation; endogenous in cells; host or cells: human PBMC from healthy donor whole blood. Particulars: CpG ODN 2216 at 1 μM, read-out: hPBMC/TLR9 IC50. An excerpt: Unlike the HEK reporter cell lines, human peripheral blood mononuclear cell (PBMC) represents primary human immune cells in blood mainly consisting of lymphocytes, monocytes, and dendritic cells. These cells express TLR7, TLR8, or TLR9, and therefore are natural responders to respective ligand stimulation. Upon activation of these TLRs, PBMCs secrete similar cytokines and chemokines in vitro and in vivo, and therefore the in vitro potency of a TLR7/8/9 antagonist in human PBMC is readily translatable to its pharmacodynamics response in vivo.
Human peripheral blood mononuclear cells (PBMC) were isolated from freshly-drawn lithium-heparinized (Lithium Heparin Plus blood Collection tube, BD Vacutainer®) healthy donor whole blood by density gradient (Ficoll-Paque™ PLUS, GE Healthcare life Sciences). Briefly, […] was diluted with 25 mL PBS (without Ca^2+, Mg^2+) in a 50 mL conical tube with porous barrier (Leucosep tube, Greiner bio-one), where 15.5 mL Ficoll-Paque was under laid after spinning. Tubes were centrifuged for 20 minutes at 800×g (1946 rpm) with the brake in the off position, and PBMC were collected from the buffy coat. Cells were then washed twice in PBS, and red blood cells were lysed by suspension in 2 mL (Red Blood Cell Lysis Buffer, Alfa Aesar) for 5-10 minutes at room temperature. After a final wash in PBS, PBMC were resuspended at a final concentration of 2×10^6 cells/mL in RPMI-1640 media with GlutaMAX™ (Gibco) supplemented with 10% Fetal Bovine Serum (Sigma) and plated at 150 μL/well (3×10^5 cells/well) in tissue culture treated round bottom 96-well plates (Corning Incorporated). Antagonist compounds (compounds of this invention) solubilized and serial diluted in 100% DMSO were added in duplicate to cells to yield a final concentration of 1% DMSO (v/v). PBMC were incubated with antagonist compounds for 30 minutes at 37° C., 5% CO2 before adding various TLR agonist reagents in 48 μL complete media per well as follows (final concentrations indicated): CpG ODN 2216 (InvivoGen) at 1 μM for TLR9, ORN 06/LyoVec (InvivoGen) at […] for TLR8 and R848 (InvivoGen) at 1 μg/mL for TLR7 and TLR8. PBMC were incubated overnight at 37° C. with 5% C02. Cell culture supernatants were collected, and levels of various human cytokines were assessed by Luminex assay (ProcartaPlex™ Multiplex Immunoassay, Invitrogen) or ELISA procedure according to the manufacturer's recommended protocol (eBioscience, ThermoFisher Scientific). Viability of the cells was also checked with Cell Viability Assay (CellTiter Glo® Luminescent Cell Viability Assay, Promega).

Another data set deals with T2, hERG K+ channel (Homo sapiens, UniProt Q12809).
T2 construct: expressed in transfected cells; host or cells: CHO (Chinese hamster ovary)
Description: hERG channel inhibition assay (patch-clamp, CHO-hERG cells). It is filed as cell-based. The conditions noted are these: for IC50 / IC20: CHO-hERG cells, whole-cell patch-clamp; for IC20: human, CHO cells stably expressing hERG; for hERG IC20/TLR7 IC50 / hERG IC20/TLR8 IC50 / hERG IC20/TLR9 IC50: safety ratio. The protocol: The hERG K^+ channels were cloned in humans and stably expressed in a CHO (Chinese hamster ovary) cell line. CHOhERG cells were used for patch-clamp (voltage-clamp, whole-cell) experiments. Cells were stimulated by a voltage pattern to activate hERG channels and conduct IKhERG Currents (rapid delayed outward rectifier potassium current of the hERG channel). After the cells were stabilized for a few minutes, the amplitude and kinetics of IKhERG were recorded at a stimulation frequency of 0.1 Hz (6 bpm). Thereafter, the test compound was added to the preparation at increasing concentrations. For each concentration, an attempt was made to reach a steady-state effect, usually, this was achieved within 3-10 min at which time the next highest concentration was applied. The amplitude and kinetics of IKhERG are recorded in each concentration of the drug which were compared to the control values (taken as 100%). (references: Redfe W S, Carlsson L, Davis A S, Lynch W G, MacKenzie I, Palethorpe S, Siegl P K, Strang I, Sullivan A T, Wallis R, Camm A J, Hammond T G. 2003; Relationships between preclinical cardiac electrophysiology, clinical QT interval prolongation and torsade de pointes for a broad range of drugs: evidence for a provisional safety margin in drug development. Cardiovasc. Res. 58:32-45, Sanguinetti M C, Tristani-Firouzi M. 2006; hERG potassium channels and cardiac arrhythmia. Nature 440:463-469, Webster R, Leishman D, Walker D. 2002; Towards a drug concentration effect relationship for QT prolongation and torsades de pointes. Curr. Opin. Drug Discov. Devel. 5:116-26).
A general note: hERG is a cardiac potassium channel; its block is linked to QT prolongation.

T2 sequence (Q12809 whole entry): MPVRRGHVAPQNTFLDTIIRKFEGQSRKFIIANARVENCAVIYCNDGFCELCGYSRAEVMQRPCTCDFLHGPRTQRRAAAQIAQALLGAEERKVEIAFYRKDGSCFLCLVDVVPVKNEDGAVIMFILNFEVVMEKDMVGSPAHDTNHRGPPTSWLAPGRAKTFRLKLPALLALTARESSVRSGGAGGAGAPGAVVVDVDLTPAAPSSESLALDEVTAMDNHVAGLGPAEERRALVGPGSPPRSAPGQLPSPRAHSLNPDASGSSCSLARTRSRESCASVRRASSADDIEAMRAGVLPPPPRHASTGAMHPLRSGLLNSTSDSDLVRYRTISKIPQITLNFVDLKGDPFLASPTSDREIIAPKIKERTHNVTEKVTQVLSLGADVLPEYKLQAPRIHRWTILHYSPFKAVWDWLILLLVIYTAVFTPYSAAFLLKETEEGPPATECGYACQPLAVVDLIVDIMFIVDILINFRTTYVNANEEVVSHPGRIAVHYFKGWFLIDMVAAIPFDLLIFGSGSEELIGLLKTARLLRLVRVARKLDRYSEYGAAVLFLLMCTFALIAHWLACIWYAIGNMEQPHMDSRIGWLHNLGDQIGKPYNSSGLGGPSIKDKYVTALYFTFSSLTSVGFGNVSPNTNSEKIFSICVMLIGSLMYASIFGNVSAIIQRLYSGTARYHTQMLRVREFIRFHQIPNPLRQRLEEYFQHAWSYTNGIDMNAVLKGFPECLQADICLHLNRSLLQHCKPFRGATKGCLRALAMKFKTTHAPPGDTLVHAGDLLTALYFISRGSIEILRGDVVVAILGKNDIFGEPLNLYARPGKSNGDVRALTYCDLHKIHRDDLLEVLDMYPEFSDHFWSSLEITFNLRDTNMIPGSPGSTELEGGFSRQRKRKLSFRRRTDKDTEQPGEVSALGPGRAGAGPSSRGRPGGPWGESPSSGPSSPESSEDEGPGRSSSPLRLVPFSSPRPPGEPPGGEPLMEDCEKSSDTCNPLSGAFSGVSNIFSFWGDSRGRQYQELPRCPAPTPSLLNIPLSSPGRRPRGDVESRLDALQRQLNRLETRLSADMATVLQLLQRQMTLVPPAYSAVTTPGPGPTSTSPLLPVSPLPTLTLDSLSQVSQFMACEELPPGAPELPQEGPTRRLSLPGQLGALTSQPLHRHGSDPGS

As for `Cc1cc(N2CCC(c3cnc(N4CCNCC4)cc3C)[C@H](C)C2)c2cnn(C)c2n1` (single isomer, unassigned) [Example 21, 1,6-dimethyl-4-[trans-3-methyl-4-(4-methyl-6-piperazin-1-yl-3-pyridyl)-1-piperidyl]pyrazolo[3,4-b]pyridine], the IC50 at TLR9 turned out to be 0.848 µM.
Turning to `Cc1cc(N2CCC(c3ncc(N4CCNCC4)cc3C)[C@H](C)C2)c2cnn(C)c2n1` (single isomer, unassigned) [Example 25, 1,6-dimethyl-4-[trans-3-methyl-4-(3-methyl-5-piperazin-1-yl-2-pyridyl)-1-piperidyl]pyrazolo[3,4-b]pyridine], on hERG K+ channel, the IC50 was > 20 µM, the IC20 was > 10 µM, the “hERG IC20/TLR7 IC50” value is listed as >1111.1 and the “hERG IC20/TLR8 IC50” value is listed as >1428.6. At hERG K+ channel, the “hERG IC20/TLR9 IC50” value is listed as >102.0. Besides, the IC50 on TLR9 turned out to be 0.32 µM.
Turning to `Cc1cc(N2CCC(c3ccc(N4CCNCC4)cc3)CC2)c2cnn(C)c2n1` [Example 1, 1,6-dimethyl-4-[4-(4-piperazin-1-ylphenyl)-1-piperidyl]pyrazolo[3,4-b]pyridine], on hERG K+ channel, the IC50 was > 10 µM, it took 4 µM to reach the 20% level (IC20), the “hERG IC20/TLR7 IC50” value is on record as 75.5 and the “hERG IC20/TLR8 IC50” value turned out to be 333.3. The “hERG IC20/TLR9 IC50” value at hERG K+ channel came to 14.5.
Turning to `Cc1cc(N2CCC(c3ccc(N4CCNCC4)cn3)CC2)c2cnn(C)c2n1` [Example 2, 1,6-dimethyl-4-[4-(5-piperazin-1-yl-2-pyridyl)-1-piperidyl]pyrazolo[3,4-b]pyridine], on hERG K+ channel, the IC50 was > 20 µM, the IC20 was > 10 µM, the “hERG IC20/TLR7 IC50” value is on record as >370.4 and the “hERG IC20/TLR8 IC50” value is listed as >476.2. The “hERG IC20/TLR9 IC50” value on hERG K+ channel is >70.4. Further, at TLR9, the IC50 is 0.47 µM.
For `Cc1cc(N2CCNCC2)ncc1C1CCN(c2ccnc3c2cnn3C)CC1` [Example 6, 1-methyl-4-[4-(4-methyl-6-piperazin-1-yl-3-pyridyl)-1-piperidyl]pyrazolo[3,4-b]pyridine], on hERG K+ channel, the IC50 is > 10 µM, the IC20 stood at 4.4 µM, the “hERG IC20/TLR7 IC50” value is listed as 628.6 and the “hERG IC20/TLR8 IC50” value stood at 118.9. Further, at hERG K+ channel, the “hERG IC20/TLR9 IC50” value amounted to 21.2. Further, the IC50 at TLR9 was found to be 0.617 µM.
Turning to `Cc1cc(N2CCC(c3cnc(N4CCNCC4)nc3C)CC2)c2cnn(C)c2n1` [Example 11, 1,6-dimethyl-4-[4-(4-methyl-2-piperazin-1-yl-pyrimidin-5-yl)-1-piperidyl]pyrazolo[3,4-b]pyridine], on hERG K+ channel, the IC50 is > 20 µM, the 20% effect level (IC20) was put at 7.5 µM, the “hERG IC20/TLR7 IC50” value worked out at 202.7 and the “hERG IC20/TLR8 IC50” value came to 178.6. Also, on hERG K+ channel, the “hERG IC20/TLR9 IC50” value is 72.1.
In the case of `COc1cc(N2CCNCC2)cnc1C1CCN(c2cc(C)nc3c2cnn3C)CC1` [Example 14, 4-[4-(3-methoxy-5-piperazin-1-yl-2-pyridyl)-1-piperidyl]-1,6-dimethyl-pyrazolo[3,4-b]pyridine], at TLR9, the IC50 stood at 0.34 µM.
As to `Cc1cc(N2CC[C@@H](c3ncc(N4CC5(CNCCO5)C4)cc3C)[C@H](C)C2)c2cnn(C)c2n1` [Example 27, 2-[6-[(3S,4R)-1-(1,6-dimethylpyrazolo[3,4-b]pyridin-4-yl)-3-methyl-4-piperidyl]-5-methyl-3-pyridyl]-5-oxa-2,8-diazaspiro[3.5]nonane], on TLR9, the IC50 was 0.38 µM.
On the same count and under the same terms, the same measure for `Cc1cc(N2CC[C@@H](c3ncc(N4CC[C@@H](N)[C@H](F)C4)cc3C)[C@H](C)C2)c2cnn(C)c2n1` [Example 31, (3R,4R)-1-[6-[(3S,4R)-1-(1,6-dimethylpyrazolo[3,4-b]pyridin-4-yl)-3-methyl-4-piperidyl]-5-methyl-3-pyridyl]-3-fluoro-piperidin-4-amine]: 0.41 µM.
Turning to `CO[C@@H]1CN(c2ccc([C@H]3CCN(c4cc(C)nc5c4cnn5C)C[C@@H]3C)nc2)C[C@H]1N` [Example 36, (3R,4R)-1-[6-[(3R,4S)-1-(1,6-dimethylpyrazolo[3,4-b]pyridin-4-yl)-3-methyl-4-piperidyl]-3-pyridyl]-4-methoxy-pyrrolidin-3-amine], at hERG K+ channel, the IC50 was > 20 µM, the IC20 is > 10 µM, the “hERG IC20/TLR7 IC50” value is reported as >555.6 and the “hERG IC20/TLR8 IC50” value is on record as >476.2. In addition, at hERG K+ channel, the “hERG IC20/TLR9 IC50” value is given as >58.8.
With `COC[C@H]1CN(c2ccc([C@H]3CCN(c4cc(C)nc5c4cnn5C)C[C@@H]3C)nc2)CCN1` [Example 37, 4-[(3R,4S)-4-[5-[(3R)-3-(methoxymethyl)piperazin-1-yl]-2-pyridyl]-3-methyl-1-piperidyl]-1,6-dimethyl-pyrazolo[3,4-b]pyridine], at hERG K+ channel, the IC50 was > 20 µM, the IC20 was > 10 µM, the “hERG IC20/TLR7 IC50” value is on record as >1111.1 and the “hERG IC20/TLR8 IC50” value is >769.2. For the same molecule, the “hERG IC20/TLR9 IC50” value on hERG K+ channel is reported as >30.1.
Consider `Cc1cc(N2CC[C@H](c3ccc(N4CC5(CNCCO5)C4)cn3)[C@@H](C)C2)c2cnn(C)c2n1` [Example 38, 2-[6-[(3R,4S)-1-(1,6-dimethylpyrazolo[3,4-b]pyridin-4-yl)-3-methyl-4-piperidyl]-3-pyridyl]-5-oxa-2,8-diazaspiro[3.5]nonane], for which, on hERG K+ channel, the IC50 is > 20 µM, the IC20 is 5.2 µM, the “hERG IC20/TLR7 IC50” value came out at 400.0 and the “hERG IC20/TLR8 IC50” value was 472.7. The “hERG IC20/TLR9 IC50” value at hERG K+ channel is 27.1.

For orientation: IC20 means the concentration needed for an effect of 20%. A high value points to a need for much substance.

The values above are taken from US20240360126A1, “PYRAZOLO[3,4-B]PYRIDINE COMPOUNDS FOR THE TREATMENT OF AUTOIMMUNE DISEASE” (Hoffmann-La Roche Inc., priority 2021, published 2024).
